Test results: article PMC7059199, “Identification and structural insight of an effective PPARγ modulator with improved therapeutic index for anti-diabetic drug discovery” (Chemical Science, 2020)
pKi: −log10 of the molar value.

Tests used:
3T3-L1 cells [1] = experiment: qPCR of adipogenic genes in 3T3-L1 cells; format: cell-based, mouse; conditions: 7 days after treatment
Method: Encouraged by the above results and to further determine whether VSP-77 activates PPARγ in 3T3-L1 cells, we evaluated the ability of VSP-77 to stimulate PPARγ activity by measuring the mRNA levels of endogenous PPARγ-regulated downstream genes linked to adipogenesis (primers are listed in Table S1 ^†).
Fig. 7 Expression of adipogenic genes in 3T3-L1 cells was analyzed by quantitative PCR (qPCR). Relative mRNA levels of the adipocyte differentiation genes PPARγ, aP2, CD36, LPL, C/EBPα and Fasn. mRNA was extracted from differentiating cells 7 days after treatment (n = 3, error bars = SEM). […]
(average±standard deviation calculated from three separate experiments). […]
Cells were stained with Oil Red O to estimate the lipid accumulation. The images were analyzed using ImageJ (National Institutes of Health).
For real-time PCR analysis, 1-2 μg total RNA was reverse-transcribed using the SuperScript cDNA Reverse Transcription Kit (Invitrogen) with SYBR Green PCR Master Mix (Invitrogen) and gene specific primers (Table S1) using a Roche Light Cycler 480 machine. The relative expression of mRNA was determined after normalization to β-actin level using the ΔΔ-Ct method. […]

3T3-L1 cells [2] = experiment: 3T3-L1 adipocyte differentiation assay (Oil Red O staining); format: cell-based, mouse
Method: One of the best documented side-effects of the PPARγ agonist drugs is weight gain as PPARγ is the key activator of adipogenesis. To determine whether VSP-77 promotes adipogenesis, we treated mouse fibroblast 3T3-L1 cells with 100 μM of VSP-77. […] Cells were incubated with Oil Red O, which stains adipocytes red.
Fig. 6 3T3-L1 adipocyte differentiation assay. Oil Red O staining of 3T3-L1 fibroblast cells after differentiating with different ligands for 2 days. […]
Adipocyte differentiation assay
The adipocyte differentiation assay was performed with NIH 3T3-L1 preadipocytes obtained from ATCC. The 3T3-L1 preadipocytes were maintained in DMEM containing 10% FBS and antibiotics. For differentiation DMI (Dexamethazone 1 μM, 3-isobutyl-1-methyxanthine (IBMX) 0.5 mM and Insulin167 nM) and 10 μM of rosiglitazone were used as positive controls for the assay. VSP-77 was used at a 100 μM concentration. All the treatments have insulin at 167 nM concentration. Media with DMSO was used as a negative control. Differentiation was induced by treating post-confluent cultures with media containing the respective ligands for two days.
Cells were stained with Oil Red O to estimate the lipid accumulation. The images were analyzed using ImageJ (National Institutes of Health). […]

GST-PPARγ LBD = molecular target: T1, GST-PPARγ LBD (Homo sapiens, UniProt P37231); experiment: LanthaScreen TR-FRET competitive binding assay, PPARγ
T1 construct: 0.5 nM GST-PPARγ LBD was incubated with 5 nM Fluormone™; purchased Invitrogen
T1 sequence (P37231 238-503 limits assumed): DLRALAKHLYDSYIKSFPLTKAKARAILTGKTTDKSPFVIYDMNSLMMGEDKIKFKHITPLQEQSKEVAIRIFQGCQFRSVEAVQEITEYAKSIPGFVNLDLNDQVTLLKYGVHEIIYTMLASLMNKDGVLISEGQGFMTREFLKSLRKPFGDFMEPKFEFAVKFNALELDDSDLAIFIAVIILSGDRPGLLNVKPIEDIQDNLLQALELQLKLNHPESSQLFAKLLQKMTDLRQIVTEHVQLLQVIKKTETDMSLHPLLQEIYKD
Method: LanthaScreen™ TR-FRET assay (Invitrogen) was used for measuring the binding affinities of the ligands. 0.5 nM GST-PPARγ LBD was incubated with 5 nM Fluormone™ and Terbium-coated GST antibody.
Competitive TR -FRET binding assay
The GST PPARγ -LBD was labeled with a terbium-linked antibody and a fluorescent small molecule pan-PPAR ligand (Fluormone™ Pan-PPAR Green, Invitrogen) was used as a tracer that is displaced from the ligand binding domain upon agonist binding.
Excitation of the terbium at 340 nm results in FRET to the fluorescent tracer, with
Tracer displacment results is a loss of FRET signal between the terbium label and the fluorescent tracer.
The inhibition constant (ki) for a competitor was calculated by applying the
Cheng-Prusoff equation as following:
the tracer, [tracer] is the concentration of Fluormone™ Pan-PPAR Green used in the

HFD mice = experiment: Anti-diabetic activity in high-fat diet (HFD) mice, 10 days; format: in vivo, C57BL/6J mice
PPARδ = molecular target: T2, PPARδ (Homo sapiens, UniProt Q03181); experiment: Competitive TR-FRET assay, PPARδ; conditions: even at 100 μM
T2 sequence (Q03181 1-441): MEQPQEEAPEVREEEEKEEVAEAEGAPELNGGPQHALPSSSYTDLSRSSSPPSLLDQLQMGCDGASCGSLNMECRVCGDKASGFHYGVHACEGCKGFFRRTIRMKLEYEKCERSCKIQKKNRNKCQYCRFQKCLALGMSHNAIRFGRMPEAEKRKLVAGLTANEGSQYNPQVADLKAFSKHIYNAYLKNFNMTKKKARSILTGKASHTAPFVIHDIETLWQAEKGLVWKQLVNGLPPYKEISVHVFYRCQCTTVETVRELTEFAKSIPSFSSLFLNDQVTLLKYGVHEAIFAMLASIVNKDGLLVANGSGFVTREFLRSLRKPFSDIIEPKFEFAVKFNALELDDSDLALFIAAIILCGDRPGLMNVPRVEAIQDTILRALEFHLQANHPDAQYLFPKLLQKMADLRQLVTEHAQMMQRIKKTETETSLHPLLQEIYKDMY

PPARα = molecular target: T3, PPARα (Homo sapiens, UniProt Q07869); experiment: Competitive TR-FRET assay, PPARα; conditions: even at 100 μM
T3 sequence (Q07869 1-468): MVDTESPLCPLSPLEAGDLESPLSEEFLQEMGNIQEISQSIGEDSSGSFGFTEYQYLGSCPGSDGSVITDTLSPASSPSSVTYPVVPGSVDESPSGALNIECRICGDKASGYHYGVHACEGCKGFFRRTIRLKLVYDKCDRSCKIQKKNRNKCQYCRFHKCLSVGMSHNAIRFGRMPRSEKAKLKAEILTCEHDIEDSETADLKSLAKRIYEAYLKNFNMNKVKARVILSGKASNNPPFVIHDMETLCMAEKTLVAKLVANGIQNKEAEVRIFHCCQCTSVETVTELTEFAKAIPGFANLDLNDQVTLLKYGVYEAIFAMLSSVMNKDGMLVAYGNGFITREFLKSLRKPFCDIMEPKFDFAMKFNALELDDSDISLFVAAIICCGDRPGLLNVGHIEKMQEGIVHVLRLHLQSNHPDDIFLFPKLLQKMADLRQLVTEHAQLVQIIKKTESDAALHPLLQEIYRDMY

CCCCCCCC(OCC(=O)O)c1ccc(Cl)cc1 (centres unmarked) [VSP-77]
expression of adipogenic genes PPARγ, aP2, CD36, LPL, C/EBPα and Fasn (mRNA) (3T3-L1 cells [1]): only weakly stimulated
adipogenesis (in words) (3T3-L1 cells [2]; 100 μM): does not activate adipogenesis
total number of adipocytes when added to DMI- or Rosi-treated cells (3T3-L1 cells [2]; VSP-77 100 μM): clear decrease
% Area stained by Oil Red O (3T3-L1 cells [2]; VSP-77 100 μM, 2 days): 0%
binding to PPARγ (in words) (GST-PPARγ LBD; at 10 μM): potent binding affinity
pKi (GST-PPARγ LBD; competition of Fluormone (5 nM), 0.5 nM GST-PPARγ LBD): 5.32
binding affinity for PPARγ relative to DA (GST-PPARγ LBD; higher than DA): about 10 fold
expression of key adipogenesis-related genes in adipose tissue (HFD mice): does not induce
Cdk5-mediated phosphorylation of PPARγ at Ser-273 in adipose tissue (HFD mice; 5 mg/kg i.p.): decrease
body weight and food intake compared to vehicle-treated mice (HFD mice; 5 mg/kg i.p.): without significant differences
expression of glut4 and adiponectin in adipose tissue (HFD mice; 5 mg/kg i.p.): selectively induced
fasting insulin levels (HFD mice; 5 mg/kg i.p.): significant reduction
glucose levels (HFD mice; 5 mg/kg i.p.): lowered
insulin resistance (HOMA-IR) (HFD mice; 5 mg/kg i.p.): clear and dose-dependent improvement
organ / fat weight (HFD mice; 5 mg/kg i.p.): selectively decreased subcutaneous and perirenal fats
effect on PPARδ (in words) (PPARδ): no obvious effects
effect on PPARα (in words) (PPARα): no obvious effects
